Data published in ChEMBL document CHEMBL1153217, “Antitubercular potential of some semisynthetic analogues of phytol” (Bioorg Med Chem Lett, 2010).
Converted amounts (≈) assume the structure as drawn. The source made the active and inactive calls. The calls are words filed in the database; no cut-off is given here.

Tests used:
Mus musculus [1] = assay: Toxicity in Swiss albino mouse assessed as total haemoglobin level 50 mg/kg, po (reference value: 7.54 +/- 1.05 g/dl); format: organism-based; parameters: dose 50 mg/kg, route oral; conditions: in vivo
Mus musculus [2] = assay: Toxicity in Swiss albino mouse assessed as total WBC level 300 mg/kg, po (reference value: 10.71 +/- 2.47 thousand/mm'3); format: organism-based; parameters: dose 300 mg/kg, route oral; conditions: in vivo
Mus musculus [3] = assay: Toxicity in Swiss albino mouse assessed as total serum total cholesterol level 50 mg/kg, po (reference value: 43.25 +/- 4.04 mg/dl); format: organism-based; parameters: dose 50 mg/kg, route oral; conditions: in vivo
Mus musculus [4] = assay: Toxicity in Swiss albino mouse assessed as total SGOT level 300 mg/kg, po (reference value: 8.13 +/- 0.79 U/L); format: organism-based; parameters: dose 300 mg/kg, route oral; conditions: in vivo
Mus musculus [5] = assay: Toxicity in Swiss albino mouse assessed as total serum triglyceride level 5 mg/kg, po (reference value: 72.43 +/- 8.40 mg/dl); format: organism-based; parameters: dose 5 mg/kg, route oral; conditions: in vivo
Mus musculus [6] = assay: Toxicity in Swiss albino mouse assessed as total RBC count 300 mg/kg, po (reference value: 6.24 +/- 0.51 millions/mm'3); format: organism-based; parameters: dose 300 mg/kg, route oral; conditions: in vivo
Mus musculus [7] = assay: Toxicity in Swiss albino mouse assessed as body weight at 5 mg/kg, po (reference value: 23.56+/-1.547 g); format: organism-based; parameters: dose 5 mg/kg, route oral; conditions: in vivo
Mus musculus [8] = assay: Toxicity in Swiss albino mouse assessed as total serum creatinine level 5 mg/kg, po (reference value: 0.71 +/- 0.14 mg/dl); format: organism-based; parameters: dose 5 mg/kg, route oral; conditions: in vivo
Mus musculus [9] = assay: Toxicity in Swiss albino mouse assessed as total WBC level 5 mg/kg, po (reference value: 10.71 +/- 2.47 thousand/mm'3); format: organism-based; parameters: dose 5 mg/kg, route oral; conditions: in vivo
Mus musculus [10] = assay: Toxicity in Swiss albino mouse assessed as total RBC count 5 mg/kg, po (reference value: 6.24 +/- 0.51 millions/mm'3); format: organism-based; parameters: dose 5 mg/kg, route oral; conditions: in vivo
Mus musculus [11] = assay: Toxicity in Swiss albino mouse assessed as total SGPT level 50 mg/kg, po (reference value: 8.13 +/- 0.79 U/L); format: organism-based; parameters: dose 50 mg/kg, route oral; conditions: in vivo
Mus musculus [12] = assay: Toxicity in Swiss albino mouse assessed as total serum creatinine level 50 mg/kg, po (reference value: 0.71 +/- 0.14 mg/dl); format: organism-based; parameters: dose 50 mg/kg, route oral; conditions: in vivo
[13] = test system: Mycobacterium tuberculosis; assay: Antitubercular activity against Mycobacterium tuberculosis H37Rv by BACTEC460 radiometric susceptibility assay; format: functional
Mus musculus [14] = assay: Toxicity in Swiss albino mouse assessed as total serum creatinine level 300 mg/kg, po (reference value: 0.71 +/- 0.14 mg/dl); format: organism-based; parameters: dose 300 mg/kg, route oral; conditions: in vivo
Mus musculus [15] = assay: Toxicity in Swiss albino mouse assessed as total serum triglyceride level 300 mg/kg, po (reference value: 72.43 +/- 8.40 mg/dl); format: organism-based; parameters: dose 300 mg/kg, route oral; conditions: in vivo
Mus musculus [16] = assay: Toxicity in Swiss albino mouse assessed as total serum total cholesterol level 300 mg/kg, po (reference value: 43.25 +/- 4.04 mg/dl); format: organism-based; parameters: dose 300 mg/kg, route oral; conditions: in vivo
Mus musculus [17] = assay: Toxicity in Swiss albino mouse assessed as total haemoglobin level 300 mg/kg, po (reference value: 7.54 +/- 1.05 g/dl); format: organism-based; parameters: dose 300 mg/kg, route oral; conditions: in vivo
Mus musculus [18] = assay: Toxicity in Swiss albino mouse assessed as total SGPT level 300 mg/kg, po (reference value: 8.13 +/- 0.79U/L); format: organism-based; parameters: dose 300 mg/kg, route oral; conditions: in vivo
Mus musculus [19] = assay: Toxicity in Swiss albino mouse assessed as total serum total cholesterol level 5 mg/kg, po (reference value: 43.25 +/- 4.04 mg/dl); format: organism-based; parameters: dose 5 mg/kg, route oral; conditions: in vivo
Mus musculus [20] = assay: Toxicity in Swiss albino mouse assessed as total WBC level 50 mg/kg, po (reference value: 10.71 +/- 2.47 thousand/mm'3); format: organism-based; parameters: dose 50 mg/kg, route oral; conditions: in vivo
Mus musculus [21] = assay: Toxicity in Swiss albino mouse assessed as total RBC count 50 mg/kg, po (reference value: 6.24 +/- 0.51 millions/mm'3); format: organism-based; parameters: dose 50 mg/kg, route oral; conditions: in vivo
Mus musculus [22] = assay: Toxicity in Swiss albino mouse assessed as total serum triglyceride level 50 mg/kg, po (reference value: 72.43 +/- 8.40 mg/dl); format: organism-based; parameters: dose 50 mg/kg, route oral; conditions: in vivo
Mus musculus [23] = assay: Toxicity in Swiss albino mouse assessed as total SGPT level 5 mg/kg, po (reference value: 8.13 +/- 0.79 U/L); format: organism-based; parameters: dose 5 mg/kg, route oral; conditions: in vivo
Mus musculus [24] = assay: Toxicity in Swiss albino mouse assessed as total haemoglobin level 5 mg/kg, po (reference value: 7.54 +/- 1.05 g/dl); format: organism-based; parameters: dose 5 mg/kg, route oral; conditions: in vivo
Mus musculus [25] = assay: Toxicity in Swiss albino mouse assessed as total SGOT level 50 mg/kg, po (reference value: 8.13 +/- 0.79 U/L); format: organism-based; parameters: dose 50 mg/kg, route oral; conditions: in vivo
Mus musculus [26] = assay: Toxicity in Swiss albino mouse assessed as total SGOT level 5 mg/kg, po (reference value: 8.13 +/- 0.79 U/L); format: organism-based; parameters: dose 5 mg/kg, route oral; conditions: in vivo
Mus musculus [27] = assay: Toxicity in Swiss albino mouse assessed as body weight at 50 mg/kg, po (reference value: 23.56+/-1.547 g); format: organism-based; parameters: dose 50 mg/kg, route oral; conditions: in vivo
Mus musculus [28] = assay: Toxicity in Swiss albino mouse assessed as body weight at 300 mg/kg, po (reference value: 23.56+/-1.547 g); format: organism-based; parameters: dose 300 mg/kg, route oral; conditions: in vivo
[29] = test system: Mycobacterium tuberculosis; assay: Antitubercular activity against Mycobacterium tuberculosis H37Rv at 500 ug/ml by BACTEC460 radiometric susceptibility assay; format: functional, organism-based

## CCOC(=O)/C=C/CO/N=C/C=C(\C)CCCC(C)CCCC(C)CCCC(C)C (stereo unspecified)
Mus musculus [1]
  Activity: 10.09 g/dL
Mus musculus [2]
  Activity: 14240 /mm3
Mus musculus [3]
  Activity: 54.91 mg/dL
Mus musculus [4]
  Activity: 41.73 U/L
Mus musculus [5]
  Activity: 84.31 mg/dL
Mus musculus [6]
  Activity: 5140000 /mm3
Mus musculus [7]
  Activity: 25.41 g
Mus musculus [8]
  Activity: 0.61 mg/dL
Mus musculus [9]
  Activity: 14450 /mm3
Mus musculus [10]
  Activity: 5980000 /mm3
Mus musculus [11]
  Activity: 10.06 U/L
Mus musculus [12]
  Activity: 0.59 mg/dL
[13]
  MIC: 15.6 µg/mL (≈ 37 µM)
Mus musculus [14]
  Activity: 1.2 mg/dL
Mus musculus [15]
  Activity: 68.95 mg/dL
Mus musculus [16]
  Activity: 62.27 mg/dL
Mus musculus [17]
  Activity: 5.55 g/dL
Mus musculus [18]
  Activity: 11.36 U/L
Mus musculus [19]
  Activity: 57.67 mg/dL
Mus musculus [20]
  Activity: 13460 /mm3
Mus musculus [21]
  Activity: 6580000 /mm3
Mus musculus [22]
  Activity: 71.9 mg/dL
Mus musculus [23]
  Activity: 11.15 U/L
Mus musculus [24]
  Activity: 6.41 g/dL
Mus musculus [25]
  Activity: 35.44 U/L
Mus musculus [26]
  Activity: 28.03 U/L
Mus musculus [27]
  Activity: 25.39 g
Mus musculus [28]
  Activity: 20.56 g

## C/C(=C\CO)CCCC(C)CCCC(C)CCCC(C)C (stereo unspecified)
[13]
  MIC: 100 µg/mL (≈ 337 µM)

## CC(=O)OC/C=C(\C)CCCC(C)CCCC(C)CCCC(C)C (stereo unspecified)
[29]
  MIC: inactive

## C/C(=C\C=O)CCCC(C)CCCC(C)CCCC(C)C (stereo unspecified)
[13]
  MIC: 50 µg/mL (≈ 170 µM)

## CN[C@@H]1[C@H](O[C@H]2[C@H](O[C@H]3[C@H](O)[C@@H](O)[C@H](N=C(N)N)[C@@H](O)[C@@H]3N=C(N)N)O[C@@H](C)[C@]2(O)C=O)O[C@@H](CO)[C@H](O)[C@H]1O [STREPTOMYCIN]
[13]
  MIC: 2 µg/mL (≈ 3.44 µM)

## C/C(=C\COC=O)CCCC(C)CCCC(C)CCCC(C)C (stereo unspecified)
[13]
  MIC: 500 µg/mL (≈ 1540 µM)

## C/C(=C\CBr)CCCC(C)CCCC(C)CCCC(C)C (stereo unspecified)
[29]
  MIC: inactive

## CO[C@H]1/C=C/O[C@@]2(C)Oc3c(C)c(O)c4c(O)c(c(/C=N/N5CCN(C)CC5)c(O)c4c3C2=O)NC(=O)/C(C)=C\C=C\[C@H](C)[C@H](O)[C@@H](C)[C@@H](O)[C@@H](C)[C@H](OC(C)=O)[C@@H]1C [RIFAMPIN]
[13]
  MIC: 2 µg/mL (≈ 2.43 µM)

## C/C(=C\C=N\O)CCCC(C)CCCC(C)CCCC(C)C (stereo unspecified)
[13]
  MIC: 25 µg/mL (≈ 80.8 µM)

## CC(C)CCCC(C)CCCC(C)CCCC1(C)OC1CO (stereo unspecified)
[29]
  MIC: inactive

## C/C(=C\COC/C=C(\C)CCCC(C)CCCC(C)CCCC(C)C)CCCC(C)CCCC(C)CCCC(C)C (stereo unspecified)
[29]
  MIC: inactive

## C/C(=C\CN=[N+]=[N-])CCCC(C)CCCC(C)CCCC(C)C (stereo unspecified)
[29]
  MIC: inactive

## CCOC(=O)CO/N=C/C=C(\C)CCCC(C)CCCC(C)CCCC(C)C (stereo unspecified)
[13]
  MIC: 500 µg/mL (≈ 1260 µM)

## COc1cc(/C=C/C(O)=C/C(=O)/C=C/c2ccc(OC/C=C(\C)CCCC(C)CCCC(C)CCCC(C)C)cc2)ccc1OC/C=C(\C)CCCC(C)CCCC(C)CCCC(C)C (stereo unspecified)
[29]
  MIC: inactive
